Measurements taken from patent US9340577B2, “HLA binding motifs and peptides and their uses” (priority 1992, dated 2016).
No end group written: not given here.

Legend:
Assay in all cases: biochemical
[1] = biological target: DRB1*1201 (Homo sapiens, UniProt P01903+P01911, A100R/A169T/D57E/D86V/F55L/H45Y/K41T/L162R/M171V/P40S/Q125H/Q178H/Q39Y/Q99D/R42G/S66L/T262R/V114A/V67L/W38E/Y59H/Y61H/Y89S); type: binding
[2] = biological target: DRB1*0301 (Homo sapiens, UniProt P01903+P01911, A100K/A102G/A103R/A169T/F55Y/I96L/K41T/L162R/M171V/P40S/Q125H/Q178H/Q39Y/R42S/S66N/T106N/T262R/W38E/Y61H); type: binding
[3] = biological target: DRB1*1101 (Homo sapiens, UniProt P01903+P01911, A100R/A169T/A87E/I96F/K41T/L162R/M171V/P40S/Q125H/Q178H/Q39Y/Q99D/R42S/S66Y/T262R/V115G/W38E); details: Binding affinity DRB1 *1101
[4] = biological target: DRB1*0802 (Homo sapiens, UniProt P01903+P01911, A100R/A103L/A169T/F76Y/H45Y/I96F/K41T/L162R/M171V/P40S/Q125H/Q178H/Q39Y/Q99D/R218S/R42G/S66Y/V115G/W38E); type: binding
[5] = biological target: DR7 (DRB1*0701) (Homo sapiens, UniProt P01903+P01911, A100R/A102G/A103Q/D57E/D86V/E43K/F76Y/K127E/L162R/M171V/P40G/Q125H/Q99D/R33Q/R42Y/R54Q/S133A/S66F/T210M/V115G/Y107V/Y59L/Y89S); type: binding
[6] = biological target: DRB1*1302 (Homo sapiens, UniProt P01903+P01911, A100E/A169T/K41T/L162R/M171V/P40S/Q125H/Q178H/Q39Y/Q99D/R42S/S66N/T262R/V115G/W38E/Y61H); type: binding
[7] = biological target: DR1 (DRB1*0101) (Homo sapiens, UniProt P01903+P01911, A100R/D57E/F55L/F60I/F76Y/I96L/L162R/M171V/P40L/Q125E/R42F/V115G/Y59C); type: binding
[8] = biological target: DR4w4 (DRB1*0401) (Homo sapiens, UniProt P01903+P01911, A100K/A169T/F76Y/I96L/K127E/L162R/M171V/N62H/P40V/Q125Y/R42H/S133A/S149N/S66Y/V115G/V209L/W38E); type: binding
[9] = biological target: DRB5*0101 (Homo sapiens, UniProt P01903+Q30154); details: Binding affinity DRB5 *0101
[10] = biological target: DRB1*0901 (Homo sapiens, UniProt P01903+P01911, A100R/A103E/D57H/D86V/F55Y/F60I/F76Y/I96F/K127E/L162R/M171V/P40D/Q125H/Q99R/R33Q/R42F/S133A/S66N/T210M/V115G/W38K/Y107V/Y59G/Y89S); type: binding
[11] = biological target: DRB1*1501 (Homo sapiens, UniProt P01903+P01911); type: binding
[12] = biological target: DRB4*0101 (Homo sapiens, UniProt P01903+P13762, G164S); type: binding

DRB1*0301, sequence (P01903 26-254 limits assumed, other chains not shown): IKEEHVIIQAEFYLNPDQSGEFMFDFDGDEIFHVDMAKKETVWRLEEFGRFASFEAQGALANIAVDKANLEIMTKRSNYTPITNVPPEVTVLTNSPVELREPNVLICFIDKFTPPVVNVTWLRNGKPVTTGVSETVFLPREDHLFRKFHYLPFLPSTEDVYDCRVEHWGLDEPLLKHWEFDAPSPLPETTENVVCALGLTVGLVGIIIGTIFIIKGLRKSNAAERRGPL
DRB1*1101, sequence (P01903 26-254 limits assumed, other chains not shown): as above
DRB1*1302, sequence (P01903 26-254 limits assumed, other chains not shown): as above

Molecule | IC50 [1] [nM] | IC50 [2] [nM] | IC50 [3] [nM] | IC50 [4] [nM] | IC50 [5] [nM] | IC50 [6] [nM] | IC50 [7] [nM] | IC50 [8] [nM] | IC50 [9] [nM] | IC50 [10] [nM] | IC50 [11] [nM] | IC50 [12] [nM]
CC[C@H](C)[C@H](NC(=O)[C@H](Cc1ccccc1)NC(=O)[C@H](Cc1c[nH]c2ccccc12)NC(=O)CNC(=O)[C@H](Cc1ccccc1)NC(=O)[C@H](CC(C)C)NC(=O)[C@H](Cc1ccccc1)NC(=O)CNC(=O)[C@@H](N)CC(C)C)C(=O)N[C@@H](CCCCN)C(=O)N[C@@H](CO)C(=O)N[C@@H](CO)C(=O)N[C@@H](CC(N)=O)C(=O)N[C@@H](CCC(=O)O)C(=O)N[C@@H](C)C(=O)O [Peptide 68.0084] | 475 | > 20000 | – | – | – | – | – | – | – | – | – | –
CC[C@H](C)[C@H](NC(=O)[C@H](CCCNC(=N)N)NC(=O)[C@@H](N)[C@@H](C)O)C(=O)N[C@@H](Cc1ccc(O)cc1)C(=O)N[C@@H](CC(N)=O)C(=O)N[C@H](C(=O)N[C@H](C(=O)NCC(=O)N[C@H](C(=O)N[C@@H](CC(C)C)C(=O)N[C@@H](CCCNC(=N)N)C(=O)NCC(=O)N[C@@H](C)C(=O)N[C@H](C(=O)N[C@@H](CCC(=O)O)C(=O)O)C(C)C)[C@@H](C)O)[C@@H](C)CC)C(C)C [Peptide 68.0107] | 502 | > 20000 | – | – | – | – | – | – | – | – | – | –
CSCC[C@H](NC(=O)[C@@H]1CCCN1C(=O)[C@H](CC(=O)O)NC(=O)[C@@H](N)Cc1ccc(O)cc1)C(=O)N[C@@H](Cc1ccccc1)C(=O)N[C@@H](CCCCN)C(=O)N[C@@H](Cc1ccc(O)cc1)C(=O)N[C@@H](Cc1c[nH]cn1)C(=O)N[C@@H](CC(C)C)C(=O)N[C@H](C(=O)N[C@H](C(=O)N[C@@H](C)C(=O)N[C@@H](CCC(N)=O)C(=O)N[C@H](C(=O)N[C@@H](CCCNC(=N)N)C(=O)O)C(C)C)C(C)C)[C@@H](C)O [Peptide 68.0117] | 240 | > 20000 | – | – | – | – | – | – | – | – | – | –
CSCC[C@H](NC(=O)[C@@H]1CCCN1C(=O)[C@@H](N)CC(=O)O)C(=O)N[C@@H](Cc1ccccc1)C(=O)N[C@@H](CCCCN)C(=O)N[C@@H](Cc1ccc(O)cc1)C(=O)N[C@@H](Cc1c[nH]cn1)C(=O)N[C@@H](CC(C)C)C(=O)N[C@H](C(=O)N[C@H](C(=O)N[C@@H](C)C(=O)N[C@@H](CCC(N)=O)C(=O)N[C@H](C(=O)N[C@@H](CCCNC(=N)N)C(=O)NCC(=O)O)C(C)C)C(C)C)[C@@H](C)O [Peptide 68.0118] | 470 | > 20000 | – | – | – | – | – | – | – | – | – | –
CSCC[C@H](NC(=O)CNC(=O)CNC(=O)[C@H](CCCNC(=N)N)NC(=O)[C@@H](NC(=O)[C@H](CCC(N)=O)NC(=O)[C@H](C)NC(=O)[C@@H](NC(=O)[C@@H](NC(=O)[C@H](CC(C)C)NC(=O)[C@H](Cc1c[nH]cn1)NC(=O)[C@H](Cc1ccc(O)cc1)NC(=O)[C@H](CCCCN)NC(=O)[C@H](Cc1ccccc1)NC(=O)[C@@H](N)CCSC)[C@@H](C)O)C(C)C)C(C)C)C(=O)O [Peptide 68.0119] | 482 | > 20000 | – | – | – | – | – | – | – | – | – | –
CC[C@H](C)[C@H](NC(=O)[C@H](CCC(N)=O)NC(=O)[C@@H](N)CCCNC(=N)N)C(=O)N[C@@H](Cc1ccc(O)cc1)C(=O)N[C@H](C(=O)N[C@@H](C)C(=O)N[C@@H](C)C(=O)N[C@@H](Cc1ccccc1)C(=O)N[C@H](C(=O)N[C@H](C(=O)N[C@@H](CCC(N)=O)C(=O)N[C@@H](C)C(=O)N[C@@H](C)C(=O)N[C@@H](C)C(=O)N[C@@H](CCC(=O)O)C(=O)O)C(C)C)[C@@H](C)O)C(C)C [Peptide 68.0134] | 609 | > 20000 | – | – | – | – | – | – | – | – | – | –
CC[C@H](C)[C@H](NC(=O)[C@@H](N)CCC(N)=O)C(=O)N[C@@H](Cc1ccc(O)cc1)C(=O)N[C@H](C(=O)N[C@@H](C)C(=O)N[C@@H](C)C(=O)N[C@@H](Cc1ccccc1)C(=O)N[C@H](C(=O)N[C@H](C(=O)N[C@@H](CCC(N)=O)C(=O)N[C@@H](C)C(=O)N[C@@H](C)C(=O)N[C@@H](C)C(=O)N[C@@H](CCC(=O)O)C(=O)N[C@H](C(=O)O)[C@@H](C)O)C(C)C)[C@@H](C)O)C(C)C [Peptide 68.0135] | 934 | > 20000 | – | – | – | – | – | – | – | – | – | –
CC(C)C[C@H](NC(=O)[C@@H](NC(=O)[C@H](CCC(=O)O)NC(=O)[C@H](C)NC(=O)[C@H](C)NC(=O)[C@H](C)NC(=O)[C@H](CCC(N)=O)NC(=O)[C@@H](NC(=O)[C@@H](NC(=O)[C@H](Cc1ccccc1)NC(=O)[C@H](C)NC(=O)[C@H](C)NC(=O)[C@@H](N)C(C)C)[C@@H](C)O)C(C)C)[C@@H](C)O)C(=O)N[C@@H](CO)C(=O)N[C@@H](CCC(=O)O)C(=O)O [Peptide 68.0136] | 4460 | > 20000 | – | – | – | – | – | – | – | – | – | –
CC[C@H](C)[C@H](NC(=O)CNC(=O)[C@@H](NC(=O)[C@H](CCCCN)NC(=O)[C@H](Cc1ccc(O)cc1)NC(=O)[C@H](Cc1c[nH]c2ccccc12)NC(=O)[C@H](Cc1ccc(O)cc1)NC(=O)[C@@H](N)CC(C)C)[C@@H](C)O)C(=O)N[C@@H](CO)C(=O)N[C@@H](CC(N)=O)C(=O)N[C@H](C(=O)N[C@@H](CO)C(=O)N[C@@H](CCC(=O)O)C(=O)N[C@H](C(=O)N[C@@H](Cc1ccc(O)cc1)C(=O)O)C(C)C)[C@@H](C)CC [Peptide 89.0009] | 4620 | > 20000 | 6280 | 1440 | 19 | 319 | 41 | 20 | 634 | 631 | – | –
CC[C@H](C)[C@H](NC(=O)[C@H](Cc1c[nH]cn1)NC(=O)[C@H](C)NC(=O)[C@H](Cc1ccc(O)cc1)NC(=O)[C@H](CC(C)C)NC(=O)[C@@H](NC(=O)[C@H](Cc1ccccc1)NC(=O)[C@@H]1CCCN1C(=O)[C@H](CCC(N)=O)NC(=O)[C@@H](NC(=O)[C@H](CC(C)C)NC(=O)[C@@H](NC(=O)[C@H](CCCCN)NC(=O)[C@@H](N)Cc1ccccc1)[C@@H](C)O)[C@@H](C)CC)[C@@H](C)CC)C(=O)N[C@@H](CCC(N)=O)C(=O)O [Peptide 89.0025] | 513 | > 20000 | – | – | 882 | – | 27 | 728 | 8430 | 97 | 20 | 9.6
CSCC[C@H](NC(=O)[C@H](Cc1ccc(O)cc1)NC(=O)[C@H](Cc1ccc(O)cc1)NC(=O)[C@@H](NC(=O)[C@@H](N)CO)C(C)C)C(=O)N[C@H](C(=O)N[C@@H](CC(=O)O)C(=O)N[C@@H](C)C(=O)NCC(=O)N[C@H](C(=O)N[C@@H](Cc1c[nH]c2ccccc12)C(=O)N[C@@H](CC(=O)O)C(=O)N[C@@H](CCCCN)C(=O)N[C@H](C(=O)N[C@@H](C)C(=O)O)[C@@H](C)O)[C@@H](C)O)[C@@H](C)O [Peptide 90.0182] | 708 | 328 | 2880 | 8460 | – | 14 | 9.3 | – | > 20000 | 1600 | 43 | 7
IHFIQGAVISFVNST [Peptide 89.0037] | 732 | > 20000 | > 20000 | 11700 | 338 | – | 31 | 5130 | > 20000 | – | 6980 | 155
NCILLYGAANTGKSL [Peptide 89.0017] | > 20000 | > 20000 | 5780 | 2690 | > 20000 | 2120 | 81 | – | 442 | – | – | 525
TVTFVTEQQQQMFLG [Peptide 90.0210] | 2770 | 41 | > 20000 | 6020 | > 20000 | > 20000 | 1950 | – | > 20000 | > 20000 | > 20000 | –
WKLIRMECALLYTAK [Peptide 90.0199] | 159 | 141 | 2000 | 2700 | 3160 | 98 | – | – | 3630 | 4000 | 509 | 62
